These results are taken from paper PMC5654082 (Malaria Journal, 2017).

pIC50: −log10 of the molar value. Where a name gives a salt, the structure may show the parent alone. Marks after values point to notes of the source that are not given here.

The conditions of series [1]: cited from earlier work.
For series [2] the following is noted: co-administration of EFV; cited from earlier work.
For series [3] the following is noted: Thai children with uncomplicated multidrug-resistant falciparum malaria; (geometric) mean or median; cited from earlier work.
Another series deals with T1, human OCT2 (Homo sapiens, UniProt O15244).
T1 construct: host or cells: HEK293, baculovirus transduction (CMV promoter), transient
T1 sequence (O15244 1-555): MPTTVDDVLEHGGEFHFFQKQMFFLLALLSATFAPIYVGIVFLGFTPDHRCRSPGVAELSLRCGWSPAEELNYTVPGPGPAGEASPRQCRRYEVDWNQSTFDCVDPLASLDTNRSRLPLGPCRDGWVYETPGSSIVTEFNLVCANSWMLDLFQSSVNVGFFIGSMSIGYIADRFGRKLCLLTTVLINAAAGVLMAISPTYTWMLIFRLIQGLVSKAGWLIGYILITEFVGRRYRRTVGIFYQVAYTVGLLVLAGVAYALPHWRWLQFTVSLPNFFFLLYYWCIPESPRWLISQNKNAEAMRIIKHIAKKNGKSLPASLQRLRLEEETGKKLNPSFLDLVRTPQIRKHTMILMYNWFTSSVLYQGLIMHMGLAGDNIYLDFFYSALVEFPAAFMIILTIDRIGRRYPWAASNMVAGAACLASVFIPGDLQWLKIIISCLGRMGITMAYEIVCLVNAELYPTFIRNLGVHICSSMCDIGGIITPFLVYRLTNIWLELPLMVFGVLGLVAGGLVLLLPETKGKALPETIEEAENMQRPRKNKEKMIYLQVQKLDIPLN
The series is described as follows: Inhibition of OCT2-mediated ASP uptake in transduced HEK293 cells. It counts as cell-based. The note with it: 10 µM ASP, 10 min, 37 °C. As to the method: HEK293 cells were modified to transiently express (a combination of) human OCT1, OCT2, MATE1, MATE2-K, or eYFP. Briefly, cDNA of the respective genes was cloned downstream of a CMV promoter into a baculovirus, of which passage three was used to transduce HEK293 cells. These cells were seeded in poly-D-lysine coated 24- or 96-wells plates and grown in a 37 °C incubator at 5% CO2. […] After 24 h, cells were transduced with 30 µL virus (10 µL virus + 20 µL complete medium in case of 96-wells plates) or 2 × 15 µL virus for cells that required simultaneous expression of two transporters. Finally, 195 µL sodium butyrate (45 µL for 96-wells plates) was added to a final concentration of 2 mM to enhance protein expression.
AMO (10 mM), ASP (1 mM), CQ (10 mM), PQ (10 mM) and PG (10 mM) were dissolved in MilliQ water. ART (10 mM), ATO (10 mM), DHA (10 mM), LUM (10 mM), MQ (10 mM), NMQ (20 mM), PYR (10 mM), QN (10 mM) were dissolved in DMSO. All compound stocks were stored at − 20 °C. Inhibition of OCT1- or OCT2-mediated ASP uptake by anti-malarials was performed in poly-D-lysine coated 96-wells plates 2 or 3 days following HEK293 cell transduction. In short, cells were washed with 125 µL 37 °C HBSS containing 10 mM HEPES, pH 7.4. […] ASP transport was stopped by washing with 125 µL ice-cold HBSS-HEPES buffer supplemented with 0.5% BSA.
For each compound, a range of seven concentrations was used to determine the concentration at which ASP uptake was inhibited half maximally (IC50). At least three independent experiments (4 for QN) were performed for each drug in triplicate as described above. […] To generate the final dose–response inhibition curve per anti-malarial, percentage of uptake was averaged for each drug concentration per experiment and the resulting mean ± SEM corresponding to three or four independent experiments were plotted.

As for `[H]/N=C(\N/C(=N/[H])Nc1ccc(Cl)cc1)NC(C)C` [Proguanil, proguanil hydrochloride], the Unbound fraction in series [1] was 0.25 [39]. Besides, the “Increase of Cmax of PG by EFV” value in series [2] is 47%. Also, the Cmax in series [3] was 306^d [47] ng/mL. The negative logarithm of the IC50 (pIC50) at human OCT2 (seven concentrations) was 4.89. Moreover, on human OCT2 (50 µM anti-malarial, relative to solvent control fixed at 100%), the “Relative ASP uptake (OCT2-mediated)” value was 19 ± 7%.
